# From US20210186999A1, “METHOD FOR TREATMENT OF CANCER” (National University of Ireland Galway, priority 2017, published 2021)
# How the values were obtained:
# [1] = test system: nitric oxide (NO), prostaglandin E2 (PGE2), IL-10 in MLR supernatant; test: ELISA and Griess assay of immunomodulatory molecules in supernatant of mixed lymphocyte reaction; format: cell-based, BALB/c; settings: MSCs cultured with 100 μM inhibitor, FIGS. 4(a)-4(c)
# Protocol: Sialic acid content was assayed using lectin coupled flow cytometry. Biotin labelled SNA-I and MAL-II were used to detect a 2-6 sialic acid and a 2-3 sialic acid respectively. Sialyltransferase inhibition was carried out using 100 μM of 3Fax-Peracetyl Neu5Ac. Cells were cultured in the presence of the inhibitor for two successive passages to ensure inhibition.
# Both ELISA and the Griess assay were used to determine quantity of immunomodulatory molecules in the supernatant of mixed lymphocyte reaction experiments.
# [2] = test system: TNF-α+IL-1β treated MSCs co-cultured with activated T-cells; test: MSC : T-cell co-culture in mixed lymphocyte reactions (MLRs), flow cytometry; format: cell-based, BALB/c; settings: MSCs cultured with 100 μM inhibitor for two successive passages; MLR co-culture 96 hrs; FIGS. 3(a)-3(c)
# Protocol: Materials and Methods Four female BALB/c at approximately 5 to 7 weeks were euthanized and the femur and tibia was dissected and placed in a 50 ml tube with media or PBS. Using a forceps and scissors the bones were cleaned to remove muscles and snipped on both ends to plunge out the marrow into a Petri dish containing MSC medium. A 30G needle fitted on a 1 ml syringe was used to plunge out the marrow and repeated several times till the bones appeared white. The marrow was passed through a 40 μm sieve attached to a 50 ml tube and the sieve was washed twice with medium. Medium was changed, and a cell count was performed. 10 μl cells was mixed with 40 μl PBS and 10 μl 4% acetic acid and cell count was performed. Based on the count approximately 35-50 million cells were seeded per T175 cm flask or 1 animal per flask. After isolation and culturing the MSCs were extensively characterized in vitro before and after treatment with TNF-α+IL-1β.
# Sialic acid content was assayed using lectin coupled flow cytometry. Biotin labelled SNA-I and MAL-II were used to detect a 2-6 sialic acid and a 2-3 sialic acid respectively. Sialyltransferase inhibition was carried out using 100 μM of 3Fax-Peracetyl Neu5Ac. […]
# MSC and TNF-α+IL-1βMSC were co-cultured at different MSC: T-cell ratios for 96 hrs. T-cell proliferation, activation, death and differentiation were determined by flow cytometry.
smiles,measurement,setting,value
COC(=O)C1(OC(C)=O)OC(C(OC(C)=O)C(COC(C)=O)OC(C)=O)C(NC(C)=O)C(OC(C)=O)C1F (stereo not drawn) [3Fax-Peracetyl Neu5Ac],"dependence of restored T-cell proliferation on NO, PGE2 and IL-10",[1],"independent of nitric oxide (NO), prostaglandin E2 (PGE2), and IL-10"
same,"proliferation of T-cells (CD4+, CD8+) in co-culture with inhibitor-treated MSCs",[2],restored proliferation of T-cells
same,suppression of activated T-cells by TNF-α+IL-1β treated MSCs exposed to the sialyltransferase inhibitor,[2],not as effective at suppressing activated T-cells
